Test system: hES cells
Experiment: Cell adhesion assay, 1 hour (Example 2)
Format: cell-based, human
Conditions: compared with Matrigel or LN-111, not shown
Experimental: Tissue cell culture plates were coated overnight at 4° C. with sterile solutions of the ECM proteins, such as human recombinant LN-521, all at a concentration of 30 μg/ml (5 μg/cm^2). Control plates were coated with Matrigel according to the STEMCELL Technologies' instructions. Prior to use, dishes were pre-warmed in an incubator for one hour after which prewarmed O3 medium was added without additional washing of the dish. After applying a fresh LN-521 solution to a new dish, the remaining LN-521 solution could be used at least once more. All the adhesion, survival, and inhibition of survival experiments were carried out using fresh coating materials.
Briefly, 96-well plates were coated by extracellular matrix proteins as described above and blocked by O3 medium containing bovine serum albumin. The ES cells were plated at cell density of 50,000 cells/cm^2 onto extracellular matrix-coated plates and left to adhere for 1 hour in a cell incubator. After that the plates were washed 3 times with the medium to remove the non-adherent cells, and then the adherent cells were fixed for 20 minutes by 5% glutaraldehyde, stained by 0.1% Crystal Violet. (Kebo Lab, Spanga, Sweden, http://www.kebolab.se). After one hour and 3 washes with water, Crystal Violet was extracted with 10% acetic acid and quantified by measuring optical density at 570 nm. All the experiments were performed in quadruplicate.

LN-521: protein formed by joining α5, β2 and γ1 laminin chains; human recombinant, produced in HEK293 cells
spreading of the cells after one hour: clearly better

Source: patent publication US10240124B2, “Cell culture substrate comprising a laminin and a cadherin” (BioLamina AB, priority 2011, dated 2019)
